Test results: patent US11969419B2, “Method of treating cancer” (Exelixis, Inc., priority 2010, dated 2024)

Key:
endothelial cells = conditions: cited from earlier work
[1] = tested on: castration-resistant prostate cancer (CRPC) with bone metastases; test: Adaptive phase 2 trial (NCT00940225), case studies of the first three CRPC patients with bone metastases, Compound 1 100 mg; type: in vivo, human; conditions: for Bone scan (best response) / Pain (best response): preliminary best response
Protocol: In 2000, local disease recurrence was treated with radiation therapy. […] CAB with leuprolide and bicalutanide was initiated. […] All patients provided informed consent before study screening.

[2] = phase 1 clinical study; cited from earlier work
[3] = tested on: pancreatic neuroendocrine tumor model; conditions: murine pancreatic neuroendocrine tumor model; cited from earlier work
tumor cells = conditions: cited from earlier work
xenograft tumor models = conditions: cited from earlier work
[4] = three metastatic CRPC patients, summary

Compound: COc1cc2nccc(Oc3ccc(NC(=O)C4(C(=O)Nc5ccc(F)cc5)CC4)cc3)c2cc1OC [Compound 1, N-(4-{[6,7-bis(methyloxy)quinolin-4-yl]oxy}phenyl)-N′-(4-fluorophenyl)cyclopropane-1,1-dicarboxamide]
- Apoptosis of endothelial cells (endothelial cells): rapidly induces apoptosis
- Bone scan: radiotracer uptake by bone metastases ([1]; Patient 1, Week 6): dramatic decrease in radiotracer uptake
- CT scan response category ([1]; Patient 1, Week 6): partial response (PR)
- CT scan: decrease in measurable target lesions ([1]; Patient 1, Week 6): 33%
- Bone lesions on bone scan ([1]; Patient 1, Week 12, stable through Week 18): near complete resolution of bone lesions
- Adverse event leading to withdrawal ([1]; Patient 1, Week 18): Grade 3 diarrhea
- Bone pain ([1]; Patient 1, four weeks after start): significant reduction in bone pain
- Bone scan (best response) ([1]; Patient 1): Complete resolution
- Pain (best response) ([1]; Patient 1): Improvement
- Bone pain ([1]; Patient 2, Week 4): reduction in bone pain
- Bone scan: radiotracer uptake by bone lesions ([1]; Patient 2, Week 6): slight flair in radiotracer uptake
- CT scan: decrease in target lesions ([1]; Patient 2, Week 6): 13%
- Bone scan: radiotracer uptake ([1]; Patient 2, Week 12): substantial reduction of radiotracer uptake
- Bone scan (best response) ([1]; Patient 2): Improvement
- Pain (best response) ([1]; Patient 2): Pain-free
- Bone scan: radiotracer uptake ([1]; Patient 3, Week 6): dramatic reduction in radiotracer uptake
- CT scan: decrease in measurable target lesions ([1]; Patient 3, Week 6): 43%
- Bone lesions on bone scan ([1]; Patient 3, Week 12): complete resolution of bone lesions
- Pain ([1]; Patient 3, after three weeks): complete resolution of pain
- Bone scan (best response) ([1]; Patient 3): Near resolution
- Pain (best response) ([1]; Patient 3): Pain-free
- Bone pain ([1]; all three patients, discussion): substantial reductions in bone pain
- Soft tissue lesions ([1]; all three patients, discussion): response or stabilization
- Uptake of radiotracer on bone scan ([1]; all three patients, discussion): striking decrease
- Bone lesions [1, 4]: near complete resolution of bone lesions
- Bone pain [1, 4]: marked reduction
- Measurable disease [1, 4]: reduction in measurable disease
- Total serum alkaline phosphatase (tALP) levels [1, 4]: marked reduction
- Most commonly observed adverse events [2]: fatigue, diarrhea, anorexia, rash, and palmar-plantar erythrodysesthesia
- Tolerability [2]: generally well-tolerated
- Overall survival [3]: substantially improves
- Tumor invasiveness and metastasis [3]: significantly reduces
- Apoptosis of tumor cells (tumor cells): rapidly induces apoptosis
- Tumor regression (xenograft tumor models): causes tumor regression
